# Patent US20050261342A1, “Metabolites of (+)-(2S,3S)-3(2-methoxy-5- trifluoromethoxybenzylamino)-2-phenyl-piperidine” (Pfizer Inc., priority 2004, published 2005)
# Assay: Profiling and quantitative assessment of radiolabelled metabolites in human subjects after a single oral dose of [14C]-(+)-(2S, 3S)-3-(2-methoxy-5-trifluoromethoxybenzylamino)-2-phenyl-piperidine
# Format: in vivo
# Details: single 30 mg (free base) oral dose of [14C] parent compound, HPLC radioprofiling of pooled serum (1-24 h)
# Protocol: Six healthy male human subjects (4 extensive metabolizers (EM) of CYP2D6 and 2 poor metabolizers (PM) of CYP2D6) were administered in a single 30 mg (free base) oral dose of (+)-(2S, 3S)-3-(2-methoxy-5-trifluoromethoxybenzylamino)-2-phenyl-piperidine containing 100 *Ci of [14C]-(+)-(2S, 3S)-3-(2-methoxy-5-trifluoromethoxybenzylamino)-2-phenyl-piperidine (Lot # 49800-59-3, specific activity 1.22 mCi/mmol, radio purity of >99%). Blood samples were collected into red-top tubes (no preservatives or anticoagulant or serum separator) at the following time points: 1, 4, 8, 12, and 24 hours post dose. The blood samples were centrifuged at 4° C. and serum was transferred to clean tubes.
# a) Serum samples were pooled by human subject separately (3 ml from each sampling time, total of 15 ml) and aliquots of 1.5 mL from each pool were extracted with 5 mL of acetonitrile. The mixtures were vortex mixed for 5 minutes and centrifuged at 3500 rpm for 5 minutes to remove the precipitated proteins. Supernatants were combined and a small aliquot of supernatant was counted. Approximately 96% (average of all subjects) of the radioactivity was recovered in the supernatant. The supernatants were evaporated under N^2 in a turbovap at room temperature. […]
# Measuring the radioactivity in the individual peaks separated on the HPLC column using a -RAM detector allowed the quantification of each metabolite. […]
smiles,measurement,setting,value
"O=C(O)c1cc(OC(F)(F)F)ccc1O [5-trifluoromethoxy salicylic acid, 2-Hydroxy-5-trifluoromethoxy-benzoic acid]",accounted for % of the total radioactivity,EM subjects (extensive metabolizers of CYP2D6),approximately 56%
same,accounted for % of the total radioactivity,PM subjects (poor metabolizers of CYP2D6),~29%
